Key:
[1] = test system: adenovirus type 5 (Adenoid 75; ATCC VR-5); assay: Amount of viral DNA in HeLa cells, cyclopentenone before and after infection; type: cell-based; details: 5 μM or more
Experimental: (6) Amount of the viral DNA was measured by the same manner as in Example 2-(3) from the HeLa cells which were treated with the cyclopentenone infected by the adenovirus type 5 (Adenoid 75; ATCC VR-5) followed by incubating by the same manner as in Example 2-(5).

[2] = test system: CEM-SS cells infected by HIV-1IIIB (CEM-3B); assay: Survival rate of HIV-infected T cells, CEM-3B; type: cell-based, human; details: three days
Experimental: (§1) The cyclopentenone (1-5 μM) was added to CEM-SS cells infected by HIV-1IIIB (abbreviated as CEM-3B) or to H9 cells infected by HIV-1IIIB (abbreviated as H9-3B) and incubated for three days. In both cells, 90% or more of the cells were infected by HIV-1IIIB. Numbers of living and dead cells were counted and the survival rate of the cells was calculated therefrom.
(§2) Thus, FIG. 3 and FIG. 4 are the graphs showing the relation between the concentration of the cyclopentenone added and the survival rate of the cells in which abscissa is the concentration (μM) of the cyclopentenone added While ordinate is the survival rate (%) of the cells after incubating for three days. FIG. 3 is the result when CEM-3B were used while FIG. 4 is the result when H9-3B were used.

[3] = test system: adenovirus type 5 (Adenoid 75; ATCC VR-5); assay: Adenovirus hexon protein in HeLa cells, cyclopentenone before and after infection; type: cell-based; details: 10 μM or more
Experimental: (5) HeLa cells were incubated by the same manner as in Example 2-(2) and treated with the cyclopentenone. After that, the cells were infected by the adenovirus type 5 (Adenoid 75; ATCC VR-5) by the same manner as in Example 2-(4) and incubated in a medium to which the cyclopentenone was added. After the incubation, detection of the hexon proteins of adenovirus was conducted by the same manner as in Example 2-(2).

[4] = Single oral administration toxicity in rats; type: in vivo; details: single oral administration of 100 mg/kg
NIH3T3/E7-2 = assay: Colony formation of HPV16 type E7-transformed cell strain NIH3T3/E7-2; type: cell-based; details: 5 μM
Experimental: Each incubation was conducted in three runs.

[5] = test system: 70 kd heat shock proteins; assay: Expression of 70 kd heat shock proteins in HeLa cells (SDS-PAGE and blotting); type: cell-based; parameters: key: +++: the sign “+” shows the potency of signals of the 70 kd heat shock proteins observed in the blotting the more the numbers of +, the more potent the signals; ++: the sign “+” shows the potency of signals of the 70 kd heat shock proteins observed in the blotting the more the numbers of +, the more potent the signals; the sign “+” shows the potency of signals of the 70 kd heat shock proteins observed in the blotting the more the numbers of +, the more potent the signals; The sign “±” means that the signal was very weak; details: six hours
Experimental: The medium was discarded, 1 ml of 10% trichloroacetic acid was added to each of the wells and the cells were recovered by a scraper.
The cells prepared as such were subjected to an SDS-PAGE and a blotting according to a method of Example 1 to detect the expression of 70 kd heat shock proteins.
As a result, induction of the 70 kd heat shock proteins noted in the sections to which the cyclopentenone of from 5 μM to 40 μM was added. […] The sign “±” means that the signal was very weak.

HIV-1IIIB [6] = assay: p24 antigen in supernatant liquid of H9-3B culture; type: cell-based; details: three days
Experimental: as §1
(§3) Concentration of the p24 antigen contained in the supernatant liquid of the culture after incubation for three days in the case of Example 5-(2) was measured. The result was that the concentration of p24 decreased corresponding to the centration of the cyclopentenone added thereto whereupon the anti-HIV action was noted. In Table 10, the figures in parentheses are the ratio of each of the supernatant liquid of the cell cultures (when none of the cyclopentenone was added) to the concentration of p24 expressed in terms of %.

[7] = test system: H9 cells infected by HIV-1IIIB (H9-3B); assay: Survival rate of HIV-infected T cells, H9-3B; type: cell-based, human; details: three days
Experimental: as §1, §2

HIV-1IIIB [8] = assay: p24 antigen in supernatant liquid of CEM-3B culture; type: cell-based; details: three days
Experimental: as §1, §3

H9 cells = assay: Survival rate of human T cells, H9; type: cell-based; details: three days
[9] = test system: carcinogenesis caused by a two-stage carcinogenesis on skin; assay: Two-stage (DMBA/TPA) carcinogenesis on skin of mice; type: in vivo, mice of ICR strain; details: 2.5 mg per mouse
Experimental: Hair on the back of mice of ICR strain (purchased from Nippon SLC; seven weeks age; female) was shaved and DMBA (dimethylbenzanthracene) as an initiator in a form of a solution in acetone was applied thereto at the dose of 50 μg/mouse.
Thus, FIG. 5 is a graph showing the anti-carcinogenic action of the cyclopentenone in which ordinate is a carcinogenic rate while abscissa is time (weeks). In the graph, open triangles, black triangles and open circles stand for a group treated with 2.5 mg of the cyclopentenone per mouse (12 mice in total), a group treated with 0.8 mg of the cyclopentenone per mouse (11 mice in total) and a control group (12 mice in total), respectively.

[10] = Anti-inflammatory test of TPA in conchae of mice; type: in vivo; details: 2.5 mg (per mouse) applied to concha of the mouse
CEM-SS cells = assay: Survival rate of human T cells, CEM-SS; type: cell-based; details: 0.5-5 m M, three days

O=C1C=CC(O)C1O (stereo not drawn) [cyclopentenone, 4,5-dihydroxy-2-cyclopenten-1-one]
amount of the viral DNA compared with the control [1]: apparent decrease
survival rate of the cells ([2]; 3 μM): significantly decreased
survival rate of the cells ([2]; 5 μM): further decreased
amount of the hexon proteins compared with the control [3]: apparent decrease
dead cases [4]: no dead case
sensitivity of the cells into which E7 was introduced compared with the control cells (NIH3T3/E7-2): high sensitivity
Numbers (average ± SD) of the Colonies (NIH3T3/E7-2; nine days, NIH3T3/E7-2, three runs): 22.3 ± 3.5
Amount of 70 kd of Heat Shock Proteins ([5]; 5 μM): +
Amount of 70 kd of Heat Shock Proteins ([5]; 10 μM): ++
Amount of 70 kd of Heat Shock Proteins ([5]; 20 μM): +++
Amount of 70 kd of Heat Shock Proteins ([5]; 40 μM): +++
Concentration of p24 in Supernatant Liquid of the cell cultures (HIV-1IIIB [6]; 1 μM): 203 ng/mL
ratio to the concentration of p24 when none of the cyclopentenone was added (HIV-1IIIB [6]; 1 μM): 97%
Concentration of p24 in Supernatant Liquid of the cell cultures (HIV-1IIIB [6]; 3 μM): 157 ng/mL
ratio to the concentration of p24 when none of the cyclopentenone was added (HIV-1IIIB [6]; 3 μM): 75%
Concentration of p24 in Supernatant Liquid of the cell cultures (HIV-1IIIB [6]; 5 μM): 148 ng/mL
ratio to the concentration of p24 when none of the cyclopentenone was added (HIV-1IIIB [6]; 5 μM): 70%
survival rate of the cells ([7]; 3 μM): significantly decreased
survival rate of the cells ([7]; 5 μM): further decreased
Concentration of p24 in Supernatant Liquid of the cell cultures (HIV-1IIIB [8]; 1 μM): 232 ng/mL
ratio to the concentration of p24 when none of the cyclopentenone was added (HIV-1IIIB [8]; 1 μM): 83%
Concentration of p24 in Supernatant Liquid of the cell cultures (HIV-1IIIB [8]; 3 μM): 176 ng/mL
ratio to the concentration of p24 when none of the cyclopentenone was added (HIV-1IIIB [8]; 3 μM): 63%
Concentration of p24 in Supernatant Liquid of the cell cultures (HIV-1IIIB [8]; 5 μM): 175 ng/mL
ratio to the concentration of p24 when none of the cyclopentenone was added (HIV-1IIIB [8]; 5 μM): 63%
survival rate of the cells (H9 cells): no significant decrease
carcinogenic rate ([9]; applied one hour before each TPA, within 15 weeks (1 mouse out of 12)): 8.3%
carcinogenic rate ([9]; within and after 19 weeks (3 mice out of 12)): 25%
anti-inflammatory activity [10]: no anti-inflammatory activity
survival rate of the cells (CEM-SS cells): no significant decrease

Source: patent US6518317B1, “Antiviral agents” (priority 1997, dated 2003)
